Assay results reported in patent publication US20080119457A1, “Benzene, Pyridine, and Pyridazine Derivatives” (SERENEX, INC., priority 2006, published 2008).

Tested on: HSP-90 (heat shock protein 90)
Assay: Determination of affinity for HSP-90 (elution from purine affinity column)
Type: binding
Parameters: key: +++ stands for very high; ++ for high; + for moderate
Method: Affinity of test compounds for HSP-90 is determined as follows: Protein mixtures obtained from a variety of organ tissues (for example: spleen, liver and lung) are reversibly bound to a purine affinity column to capture purine-binding proteins, especially HSP-90. The purine affinity column is washed several times, and then eluted with 20 μM, 100 μM, and 500 μM of test compound. Compounds of Formula I elute HP-90 in a dose-dependent manner vs. a control elution using dimethylsulfoxide. The elution profile of Formula I compounds is determined by 1-dimensional SDS polyacrylamide gel electrophoresis. Gels are stained with a fluorescent stain such as sypro ruby (a highly sensitive fluorescent protein stain that can readily detect less than 1 fmol of total protein, i.e., less than 0.04 ng for a 40 kDa protein) or silver nitrate. The gels are imaged using a standard flat bed gel imager and the amount of protein estimated by densitometry. The percent of HSP-90 protein eluted from the column at each concentration is determined and IC50 values are calculated from these estimates.

relative binding affinity to HSP-90 | SMILES
+++ | Cc1cc(=O)c2c(C)nn(-c3ccc(C(N)=O)c(NC4CCOCC4)c3)c2o1 [Compound 7, 4-(3,6-Dimethyl-4-oxo-4H-pyrano[2,3-c]pyrazol-1-yl)-2-(tetrahydro-pyran-4-ylamino)-benzamide]
+ | Cc1nn(-c2ccc(C(N)=O)c(NC3CCOCC3)c2)c2nc[nH]c(=O)c12 [Compound 9, 4-(3-Methyl-4-oxo-4,5-dihydro-pyrazolo[3,4-d]pyrimidin-1-yl)-2-(tetrahydro-pyran-4-ylamino)-benzamide]
++ | CC(=O)c1ccc(-c2ccc(C#N)c(NC3CCC(O)CC3)c2)s1 (centres unmarked) [Compound 23, 4-(5-Acetyl-thiophen-2-yl)-2-(4-hydroxy-cyclohexylamino)-benzonitrile]
+ | COc1cc2ccn(-c3ccc(C#N)c(Nc4ccccc4)c3)c2cc1OC [Compound 34, 4-(5,6-dimethoxy-1H-indol-1-yl)-2-(phenylamino)benzonitrile]

Continued, compound first:

SMILES | relative binding affinity to HSP-90
Cn1nc(-c2ccc(C(N)=O)c(NC3CCOCC3)c2)c2c1C(=O)CC(C)(C)C2 [Compound 3, 2-(Tetrahydro-pyran-4-ylamino)-4-(1,5,5-trimethyl-7-oxo-4,5,6,7-tetrahydro-1H-indazol-3-yl)-benzamide] | +++
COc1ccc2ccn(-c3ccc(C#N)c(N[C@H]4CC[C@H](O)CC4)c3)c2c1 [Compound 19, 2-(4-Hydroxycyclohexylamino)-4-(6-methoxyindol-1-yl)benzonitrile] | +++
COc1cccc2c1ccn2-c1ccc(C#N)c(N[C@H]2CC[C@H](O)CC2)c1 [Compound 21, 2-(4-Hydroxycyclohexylamino)-4-(4-methoxyindol-1-yl)benzonitrile] | +++
Cc1nc(-c2ccc(C#N)c(NC3CCOCC3)c2)n2c1C(=O)CCC2 [Compound 35, 4-(1-methyl-8-oxo-5,6,7,8-tetrahydroimidazo[1,5-a]pyridin-3-yl)-2-(tetrahydro-2H-pyran-4-ylamino)benzonitrile] | +++
NC(=O)c1ccc(-n2ccc3ccccc32)c(Cl)c1 [Compound 46, 3-chloro-4-(1H-indol-1-yl)benzamide] | ++
COCC(C)Nc1cc(-n2cc(C)c(C(C)=O)c2C)ccc1C(N)=O (centres unmarked) [Compound 47, 4-(3-acetyl-2,4-dimethyl-1H-pyrrol-1-yl)-2-(1-methoxypropan-2-ylamino)benzamide] | ++
N#Cc1ccc(-c2ccc3n2CCCC3=O)cc1NC1CCC(O)CC1 (centres unmarked) [Compound 51, 2-(4-hydroxycyclohexylamino)-4-(8-oxo-5,6,7,8-tetrahydroindolizin-3-yl)benzonitrile] | +++
